Like-named read-outs stand apart in the source and are kept apart here.
Test system: Mycosphaerella graminicola; Anamorph: Septoria tritici; Bayer Code SEPTTR (standard laboratory isolate, SI SEPTTR)
Assay: Type A (high volume) assay, leaf blotch of wheat, standard laboratory SEPTTR isolate (SI SEPTTR)
Type: in vivo, Mycosphaerella graminicola on wheat plants (variety Yuma)
Conditions: Zymoseptoria tritici, standard laboratory isolate, high volume, 50 ppm, wheat (Yuma)
Method: Example A: Evaluation of Fungicidal Activity: Leaf Blotch of Wheat (Mycosphaerella graminicola; Anamorph: Septoria tritici; Bayer Code SEPTTR)
For Type A assays, technical grades of the experimental fungicides in Table 4 below were dissolved in acetone, and then mixed with nine volumes of water containing 110 ppm Triton X-100. The fungicide solutions were applied onto wheat seedlings using an automated booth sprayer. For Type B assays, emulsifiable concentrate (EC) formulations of technical grades of the experimental fungicides in Table 4 below were prepared at 10% (w/v), and then mixed with 150 volumes of 0.1% Trycol 5941. These solutions were applied onto wheat seedlings using an automated track sprayer at 200 L/ha. All sprayed plants were allowed to air dry prior to further handling.
Wheat plants (variety Yuma) were grown from seed in a greenhouse in 50% mineral soil/50% soil-less Metro mix until the first leaf was fully emerged, with 7-10 seedlings per pot. Prior to or after application of experimental fungicides, plants were inoculated either with spores of a standard laboratory SEPTTR isolate (SI SEPTTR) or with spores from a SEPTTR field isolate collected from Wellsbourne, England in 2012 (FI SEPTTR). After inoculation the plants were kept for 3 days at 20° C. in 100% relative humidity (one day in a dark dew chamber followed by two days in a lighted dew chamber). Plants were then transferred to a 20° C. greenhouse for disease development. When disease symptoms were fully expressed on untreated plants, infection levels on treated plants were assessed on a scale of 0 to 100 percent disease severity. Percent disease control was calculated using the ratio of disease severity on treated plants relative to untreated plants.

[1] = 24 h, 1 Day Protectant, read-out: Disease Control, SI SEPTTR Type A Assay (50 ppm) 1 DP
[2] = 72 h, 3 Day Curative, read-out: Disease Control, SI SEPTTR Type A Assay (50 ppm) 3 DC

Row | Structure (SMILES) | pest or weed control at 50 ppm [1] [%] | pest or weed control at 50 ppm [2] [%]
1 | OC(c1cncnc1)(c1ccc(Oc2ccc(Cl)cc2)cn1)C1CC1 (stereo not shown) [Compound 7] | 80 to 100 | 80 to 100
2 | C=CCCC(O)(c1cncnc1)c1ccc(Oc2ccc(Cl)cc2)cn1 (stereo not shown) [Compound 21, 1-(5-(4-chlorophenoxy)pyridine-2-yl)-1-(pyrimidin-5-yl)pent-4-en-1-ol] | 80 to 100 | 80 to 100
3 | OC(c1cncnc1)(c1ccc(Oc2ccc(Cl)nc2)cn1)C1CC1 (stereo not shown) [Compound 11] | 40 to 59 | 40 to 59
4 | COc1ncncc1C(O)(c1ccc(-c2ccc(C(C)(C)C)cc2)cn1)C(C)(C)C (stereo not shown) [Compound 168] | 60 to 79 | –
5 | OC(Cc1ccc(F)cc1F)(c1cncnc1)c1ccc(-c2ccc(OC(F)(F)F)cc2)cn1 (stereo not shown) [Compound 138] | 80 to 100 | –
6 | CC(C)(C)C#CC(O)(c1cncnc1)c1ccc(Oc2ccc(Cl)cn2)cn1 (stereo not shown) [Compound 49] | 60 to 79 | 80 to 100
7 | CC(C)(C)C(O)(c1cncnc1)c1ccc(-c2cnc3ccccc3c2)cn1 (stereo not shown) [Compound 127] | 80 to 100 | –
8 | OC(CCc1ccc(F)cc1F)(Cn1cnnn1)c1ccc(Oc2ccc(C(F)(F)F)cn2)cn1 (stereo not shown) [Compound 5] | < 40 | 40 to 59
9 | CC(C)C(O)(c1cncnc1)c1ccc(Oc2cccc(Cl)n2)cn1 (stereo not shown) [Compound 69] | 80 to 100 | –
10 | OC(C#CC1CC1)(c1cncnc1)c1ccc(Oc2ccc(C(F)(F)F)cc2)cn1 (stereo not shown) [Compound 47] | 40 to 59 | 80 to 100
11 | OC(C#CC1CC1)(c1cncnc1)c1ccc(Oc2ccc(OC(F)(F)F)cc2)cn1 (stereo not shown) [Compound 48] | < 40 | < 40
12 | COc1ccc(-c2ccc(C(O)(c3cncnc3OC)C(C)(C)C)nc2)cn1 (stereo not shown) [Compound 171] | 80 to 100 | –
13 | OC(Cc1ccc(Cl)cc1Cl)(c1cncnc1)c1ccc(-c2ccc(OC(F)(F)F)cc2)cn1 (stereo not shown) [Compound 142] | 80 to 100 | –
14 | OC(Cc1ccc(Cl)cc1F)(Cn1cnnn1)c1ccc(Oc2ccc(Cl)cc2)cn1 (stereo not shown) [Compound 42, 1-(4-chloro-2-fluorophenyl)-2-(5-(4-chlorophenoxy)-pyridin-2-yl)-3-(1H-tetrazol-1-yl)propan-2-ol] | 80 to 100 | 80 to 100
15 | OC(CCc1ccc(Cl)cc1F)(Cn1cnnn1)c1ccc(Oc2ccc(C(F)(F)F)cn2)cn1 (stereo not shown) [Compound 12] | 80 to 100 | < 40
16 | COc1ncncc1C(O)(c1ccc(-c2ccc(C(F)(F)F)nc2)cn1)C(C)(C)C (stereo not shown) [Compound 172] | 80 to 100 | –
17 | OC(c1cncnc1)(c1ccc(Oc2ccc(C(F)(F)F)cn2)cn1)C1CC1 (stereo not shown) [Compound 67] | < 40 | –
18 | C=Cc1ccc(-c2ccc(C(O)(c3cncnc3)C(C)(C)C)nc2)cc1 (stereo not shown) [Compound 109] | 60 to 79 | –
19 | Cc1cncc(C(O)(c2ccc(-c3ccc(OC(F)(F)F)cc3)cn2)C(C)(C)C)c1 (stereo not shown) [Compound 144] | 80 to 100 | –
20 | OC(c1cncnc1)(c1ccc(-c2ccc(Cl)cc2)cn1)C1CC1 (stereo not shown) [Compound 66] | 80 to 100 | –
21 | OC(Cc1ccc(Cl)cc1F)(Cn1cnnn1)c1ccc(-c2ccc(OC(F)(F)F)cc2)cn1 (stereo not shown) [Compound 28, 1-(4-chloro-2-fluorophenyl)-3-(1H-tetrazol-1-yl)-2-(5-(4-(trifluoromethoxy)phenyl)pyridin-2-yl)propan-2-ol] | 60 to 79 | 40 to 59
22 | OC(Cc1ccc(F)cc1)(c1cncnc1)c1ccc(-c2ccc(OC(F)(F)F)cc2)cn1 (stereo not shown) [Compound 136] | 80 to 100 | –
23 | OC(Cc1ccc(Cl)cc1)(c1cncnc1)c1ccc(-c2ccc(OC(F)(F)F)cc2)cn1 (stereo not shown) [Compound 140] | 80 to 100 | –
24 | OC(CCc1ccc(F)cc1F)(Cn1cnnn1)c1ccc(Oc2ccc(Cl)cn2)cn1 (stereo not shown) [Compound 2, 2-(5-((5-chloropyridin-2-yl)oxy)pyridin-2-yl)-4-(2,4-difluorophenyl)-1-(1H-tetrazol-1-yl)butan-2-ol] | 80 to 100 | < 40
25 | CC(C)C(O)(Cn1cnnn1)c1ccc(Oc2ccc(C#N)cc2)cn1 (stereo not shown) [Compound 24] | < 40 | < 40
26 | CC(C)(C)C(O)(c1cncnc1)c1ccc(-c2ccoc2)cn1 (stereo not shown) [Compound 123] | 60 to 79 | –

Row | Structure (SMILES) | pest or weed control at 50 ppm [1] [%] | pest or weed control at 50 ppm [2] [%]
27 | OC(CCc1ccc(Cl)cc1)(Cn1cnnn1)c1ccc(Oc2ccc(C(F)(F)F)cn2)cn1 (stereo not shown) [Compound 15] | 60 to 79 | 40 to 59
28 | CCC(O)(c1cncnc1)c1ccc(Oc2ccc(OC(F)(F)F)cc2)cn1 (stereo not shown) [Compound 32] | 80 to 100 | 80 to 100
29 | N#Cc1ccc(Oc2ccc(C(O)(Cn3cnnn3)C3CC3)nc2)cc1 (stereo not shown) [Compound 19, 4-((6-(1-cyclopropyl-1-hydroxy-2-(1H-tetrazol-1-yl)ethyl)pyridin-3-yl)oxy)benzonitrile] | < 40 | 40 to 59
30 | CC(C)(C)C(O)(c1cncnc1)c1ccc(-c2ccc(C#N)nc2)cn1 (stereo not shown) [Compound 108] | 60 to 79 | –
31 | CC(C)C(O)(Cn1cnnn1)c1ccc(-c2ccc(OC(F)(F)F)cc2)cn1 (stereo not shown) [Compound 61] | 40 to 59 | 60 to 79
32 | Cc1ccc(Oc2ccc(C(O)(C#CC(C)(C)C)c3cncnc3)nc2)nc1 (stereo not shown) [Compound 50] | < 40 | 60 to 79
33 | OC(c1cncnc1)(c1ccc(Oc2cccc(Cl)n2)cn1)C1CC1 (stereo not shown) [Compound 72] | < 40 | –
34 | C=CCCC(O)(c1cncnc1)c1ccc(Oc2ccc(OC(F)(F)F)cc2)cn1 (stereo not shown) [Compound 22] | 80 to 100 | 80 to 100
35 | OC(Cc1cncnc1)(c1ccc(-c2ccc(Cl)cc2)cn1)C(F)(F)F (stereo not shown) [Compound 46, 2-(5-(4-chlorophenyl)pyridin-2-yl)-1,1,1-trifluoro-3-(pyrimidin-5-yl)propan-2-ol] | 80 to 100 | 80 to 100
36 | CC(C)(C)C(O)(c1cccnc1)c1ccc(-c2ccc(OC(F)(F)F)cc2F)cn1 (stereo not shown) [Compound 147] | 80 to 100 | –
37 | OC(C#CC1CC1)(c1cncnc1)c1ccc(Oc2ccc(Cl)cc2)cn1 (stereo not shown) [Compound 40] | 80 to 100 | 60 to 79
38 | CC(C)(C)C#CC(O)(c1cncnc1)c1ccc(Oc2ccc(C(F)(F)F)cc2)cn1 (stereo not shown) [Compound 33] | 80 to 100 | 60 to 79
39 | CC(C)(C)C(O)(c1cncnc1)c1ccc(Oc2ccc(Cl)cc2)cn1 (stereo not shown) [Compound 44] | < 40 | < 40
40 | OC(Cc1cccc(Cl)c1)(c1cncnc1)c1ccc(-c2ccc(OC(F)(F)F)cc2)cn1 (stereo not shown) [Compound 141] | 60 to 79 | –
41 | OC(c1cccnc1)(c1ccc(Oc2ccc(Cl)cn2)cn1)C1CC1 (stereo not shown) [Compound 79] | 80 to 100 | –
42 | CC(C)(C)C#CC(O)(c1cncnc1)c1ccc(Oc2ccc(Cl)cc2)cn1 (stereo not shown) [Compound 29, 1-(5-(4-chlorophenoxy)pyridin-2-yl)-4,4-dimethyl-1-(pyrimidin-5-yl)pent-2-yn-1-ol] | 80 to 100 | 80 to 100
43 | N#Cc1ccc(Oc2ccc(C(O)(c3cncnc3)C3CC3)nc2)cc1 (stereo not shown) [Compound 18] | < 40 | < 40
44 | CC(C)(C)C(O)(c1cncnc1)c1ccc(-c2ccc3c(c2)CCCO3)cn1 (stereo not shown) [Compound 137] | 80 to 100 | –
45 | CC(C)(C)C(O)(Cc1cncnc1)c1ccc(-c2ccc(OC(F)F)cc2)cn1 (stereo not shown) [Compound 68] | 80 to 100 | –
46 | Cc1ccc(Oc2ccc(C(O)(c3cncnc3)C(C)C)nc2)nc1 (stereo not shown) [Compound 53] | 40 to 59 | < 40
47 | COc1ncncc1C(O)(c1ccc(-c2ccc(C(C)(C)C#N)cc2C)cn1)C(C)(C)C (stereo not shown) [Compound 129, 2-(4-(6-(1-hydroxy-1-(4-methoxypyrimidin-5-yl)-2,2-dimethylpropyl)pyridin-3-yl)-3-methylphenyl)-2-methylpropanenitrile] | 60 to 79 | –
48 | OC(Cc1cccc(F)c1)(c1cncnc1)c1ccc(-c2ccc(OC(F)(F)F)cc2)cn1 (stereo not shown) [Compound 139, 2-(3-fluorophenyl)-1-pyrimidin-5-yl-1-[5-[4-(trifluoromethoxy)-phenyl]-2-pyridyl]ethanol] | 80 to 100 | –
49 | CCC(O)(c1cncnc1)c1ccc(Oc2ccc(Cl)cn2)cn1 (stereo not shown) [Compound 54] | < 40 | 40 to 59
50 | CC(C)C(O)(c1cncnc1)c1ccc(Oc2ccc(C#N)cc2)cn1 (stereo not shown) [Compound 16] | 80 to 100 | 80 to 100
51 | N#Cc1ccc(Oc2ccc(C(O)(CC3CC3)Cn3cnnn3)nc2)cc1 (stereo not shown) [Compound 23] | < 40 | 60 to 79
